Results: paper PMC11374660, “The novel family of Warbicin® compounds inhibits glucose uptake both in yeast and human cells and restrains cancer cell proliferation” (Frontiers in Oncology, 2024)
Where two headings read alike, the source gives them in different places.

How the values were obtained:
[1] = test system: HXK2 hxk1Δ glk1Δ yeast cells; assay: Sugar uptake in HXK2 hxk1Δ glk1Δ yeast cells; assay type: cell-based, S. cerevisiae
Description: Zero-trans uptake of radioactively labeled [U-^14C]glucose, [U-^14C]fructose or [U-^14C]galactose by S. cerevisiae cells was determined in accordance with previous studies ([45], [75]). Cells were grown on different carbon sources depending on the experiment. For measuring glucose uptake activity in the tps1Δ and tps1Δ hxtΔ strains, cells were grown on YP medium containing 325 mM glycerol (measurement of 10 s). Typically, for compound characterization and kinetic studies in wild type and tps1Δ strains, cells were (pre)grown on Complete Synthetic medium supplemented with 110 mM galactose (measurement of 10 s). In the experiments on the influence of hexokinase activity on the sugar uptake rate, the measurement duration was shortened to 5 s and cells were always grown on YP medium containing 325 mM glycerol and 430 mM ethanol. After harvesting, cells were washed twice with ice-cold 25 mM MES-buffer pH 6, and resuspended in their respective medium without sugar to a final concentration of 45 mg (wet weight)/mL. The amount of added tracer was estimated to give a response close to at least 1000 counts per min in order to adequately counter background noise. […] The loaded filter was transferred to a scintillation vial containing 3 mL liquid scintillation cocktail (Ultima-Flo M, Perkin Elmer) and counted using the Hidex 300 SL. […]

yeast tps1Δ strain = assay: Growth (rescue) of the yeast tps1Δ strain on galactose with or without glucose; assay type: cell-based, S. cerevisiae
Description: (§1) Growth curves were made by measuring OD595 in a 96-well plate using the Multiskan™ FC Microplate Photometer (Thermo Fisher Scientific). Typically, for tps1Δ rescue experiments, cells were (pre)grown in Complete Synthetic medium containing 110 mM galactose. Compounds were always added 10 min prior to glucose addition to ensure maximal interaction between the cells and compounds. Cells originating from the preculture were harvested, washed in medium without sugar, after which they were resuspended to an OD of 0.1 in 200 µL of the appropriate medium. At least three technical replicates were included per condition. OD595 was measured at 30°C every 30 min with a 10-min shaking interval.

[2] = Solubility of compound stocks; assay type: physicochemical; details: 100% DMSO
Description: WBC-A and the complete structural analog library ( Supplementary Table 2 ) were purchased from different vendors, i.e. Enamine (n = 185), Life Chemicals (n = 10), LabNetwork (n = 4) and Uorsy (n = 4). WBC compounds in general are very insoluble in aqueous solutions, challenging their solubilization. Throughout this work, WBC compounds were always stock aliquoted at 50 mM concentration in 100% DMSO. In many cases, gentle sonication and heating up to 37°C was necessary to completely solubilize the compound stocks. Whereas WBC-A, -15C, -4C and -11C could be dissolved at 50 mM, some structural analogs remained in smooth or rough suspension, regardless of the concentration. Even though it is recommended to aliquot compound stocks, no significant decrease in compound strength by repeated freeze and thaw cycles in DMSO was observed.

wild type yeast cells = assay: Growth of wild type yeast (general toxicity); assay type: cell-based, S. cerevisiae; details: 100 µM; 110 mM glucose medium and 325 mM glycerol + 430 mM ethanol medium
Description: as §1

[3] = test system: hxk2Δ hxk1Δ GLK1 yeast cells; assay: Sugar uptake in hxk2Δ hxk1Δ GLK1 yeast cells; assay type: cell-based, S. cerevisiae
Description: (§2) Zero-trans uptake of radioactively labeled [U-^14C]glucose, [U-^14C]fructose or [U-^14C]galactose by S. cerevisiae cells was determined in accordance with previous studies ([45], [75]). Cells were grown on different carbon sources depending on the experiment. For measuring glucose uptake activity in the tps1Δ and tps1Δ hxtΔ strains, cells were grown on YP medium containing 325 mM glycerol (measurement of 10 s). Typically, for compound characterization and kinetic studies in wild type and tps1Δ strains, cells were (pre)grown on Complete Synthetic medium supplemented with 110 mM galactose (measurement of 10 s). In the experiments on the influence of hexokinase activity on the sugar uptake rate, the measurement duration was shortened to 5 s and cells were always grown on YP medium containing 325 mM glycerol and 430 mM ethanol. After harvesting, cells were washed twice with ice-cold 25 mM MES-buffer pH 6, and resuspended in their respective medium without sugar to a final concentration of 45 mg (wet weight)/mL. The amount of added tracer was estimated to give a response close to at least 1000 counts per min in order to adequately counter background noise. Cells were first preincubated for 10 min at 30°C with the compound to acclimate the cells to the temperature and to allow adequate interaction with the compound prior to uptake. Next, hexose sugar was mixed with the cell suspension, which was then incubated at 30°C for 5 or 10 s, depending on the experiment, after which the cells were rapidly filtered over a glass microfiber filter (Whatman GF/C) and washed three times with ice-cold dH2O. The loaded filter was transferred to a scintillation vial containing 3 mL liquid scintillation cocktail (Ultima-Flo M, Perkin Elmer) and counted using the Hidex 300 SL. Three blank measurements per strain were typically included to account for background signal, for which the cells were first quenched before adding the radioactive label.

[4] = test system: glucose uptake by wild type yeast cells; assay: Zero-trans uptake of radioactive glucose in wild type yeast cells; assay type: cell-based, S. cerevisiae; details: for IC50: radioactive glucose, 10 s, read-out: IC50 for inhibition of 2.5 mM glucose uptake
Description: as §2

[5] = test system: MCF10A breast epithelial cell line transformed with H-RAS^V12; assay: Growth and apoptosis of MCF10A H-RAS^V12 cells (IncuCyte); assay type: cell-based, human; details: MCF10A H-RAS^V12, 1 mM glucose, 25 µM
Description: For both adherent A549 and MCF10A H-RAS^V12 cell lines, growth curves were established using the IncuCyte® ZOOM technology. By collecting phase contrast images, the IncuCyte® software provides a calculated confluency percentage from which growth curves can be deducted. The cell number/density was measured by calculating the confluency of phase objects (cells) sticking on the bottom of the well. Cells were seeded at a density of 1000 - 1500 cells/well in a Nunc-Edge™ 96-well plate (Thermo Fisher Scientific) and growth was typically measured over 3 to 5 days. For the measurement of apoptosis induction using the MCF10A H-RAS^V12 cell line, the IncuCyte® Caspase-3/7 green dye was added to the medium in the recommended concentration at the beginning of the growth curve experiment. Apoptosis was detected by taking fluorescent images by excitation at 488 nm followed by IncuCyte® software analysis. Cell growth of the KMS-12-PE multiple myeloma cell line, which grows in suspension, was measured by manual cell counting. Cells were initially seeded at a density of 10^4 cells/well and incubated for 4 days after which the cell number was counted. For all cell lines, the same medium used for pregrowth was also used for the growth curve experiment, albeit with different glucose concentrations depending on the experimental design. With compound administration, the final concentration of DMSO never exceeded 0.1%. Typically, at least four technical repeats were included per condition.

[6] = Saccharomyces cerevisiae, read-out: inhibition of fructose transport
[7] = 250 µM CCCP or 50 µM WBC-A 10 min prior, 100 mM maltose with the tracer

Row | SMILES | inhibition at 50 µM [1, 6] [%] | 1 mM glucose uptake rate ([1]; strain expressing Hxk2) | rescue of growth on galactose in the presence of 5 mM glucose (yeast tps1Δ strain; 100 μM) | restoration of growth in the presence of 7.5 mM glucose (yeast tps1Δ strain; 100 μM) | Rescue of the tps1∆ strain on 2.5 mM glucose at 100 µM (yeast tps1Δ strain) | Minimal rescue concentration for growth of tps1∆ cells on 2.5 mM glucose (yeast tps1Δ strain) [µM] | concentration at which compound could be dissolved [2] [µM] | growth inhibition of wild type yeast (wild type yeast cells) | fructose uptake at tracer concentration [3, 7] | glucose uptake at tracer concentration [3, 7] | inhibition at 50 µM [3, 6] [%] | type of inhibition of glucose uptake (Lineweaver-Burk) [4] | IC50 ([4]; Saccharomyces cerevisiae) [µM] | IC50 [4] [µM] | Ki ([4]; read-out: Ki (Dixon plot) for glucose uptake) [µM] | induction of apoptosis (caspase 3/7 dye) [5] | inhibition of proliferation [5]
1 | Cc1nc(Sc2nnc3n2CCCCC3)c2c(-c3cccs3)csc2n1 [WBC-A] | > 75 | strong decrease in glucose uptake rate | rescued growth | not able to restore growth | Yes | 25 | ≥ 50000 | did not cause any growth inhibition at all | little inhibition of fructose uptake | strong inhibition of glucose uptake | ~30 | mixed type of inhibition | 17.1 | 19 | 9.04 | – | –
2 | Cc1nc(SCC(=O)c2ccc3c(c2)NC(=O)CO3)c2c(-c3cccs3)csc2n1 [WBC-11C] | – | – | – | – | Yes | 50 | ≥ 50000 | – | – | – | – | – | – | – | – | strong induction of apoptosis | highest potency
